According to article PMC7037732, “Synthesis of Combretastatin A-4 and 3′-Aminocombretastatin A-4 derivatives with Aminoacid Containing Pendants and Study of their Interaction with Tubulin and as Downregulators of the VEGF, hTERT and c-Myc Gene Expression” (Molecules, 2020):

Key:
[1] = tested on: HEK-293 (human embryonic kidney cells); assay: Inhibition of cell proliferation (MTT), nontumor HEK-293; type: cell-based; settings: Homo sapiens, 48 h of treatment (footnote), average ±SD of three experiments
Description: (§1) The ability of the synthetic compounds to inhibit cell proliferation was established by means of their IC50 values towards the tumor cell lines HT-29 (human colon adenocarcinoma), MCF-7 (breast adenocarcinoma) and A-549 (human pulmonary adenocarcinoma), as well as towards the nontumor cell line HEK-293 (human embryonic kidney cells). Results for compounds derived from CA-4 are presented in Table 1, along with the calculated selectivity indexes SIA (for HT-29 cell line), SIB (for MCF-7 cell line) and SIc (for A-549 cell line), obtained by dividing the IC50 values of the nontumor cell line (HEK-293) by those of the corresponding tumor cell line. The higher the SI index, the higher the therapeutic safety margin.
(§2) Cell culture media were purchased from Gibco (Grand Island, NY, USA). Fetal bovine serum (FBS) was a product of Harlan-Seralab (Belton, U.K.). Supplements and other chemicals not listed in this section were obtained from Sigma Chemical Co. (St. Louis, MO, USA). Plastics for cell culture were supplied by Thermo Fischer Scientific Inc., Madrid, Spain. All tested compounds were dissolved in DMSO at a concentration of 10 μg/mL and stored at −20 °C until use. HT-29, MCF-7, A-549 and HEK-293 cell lines were maintained in a Dulbecco’s modified Eagle’s medium (DMEM) containing glucose (1 g/L), glutamine (2 mM), penicillin (50 IU/mL), streptomycin (50 μg/mL) and amphotericin B (1.25 μg/mL), supplemented with 10% FBS. Cells from human non-small lung carcinoma (clone A549; ATCC n°: CCL2, MD, USA) were routinely grown at 37 °C in a humidified atmosphere of 5% CO2. Cells were maintained in a standard medium composed of RPMI 1640 (Lonza, Group Ltd., Basel, Switzerland), supplemented with 10% fetal bovine serum (FBS), 2 mM L-glutamine and 1% penicillin and streptomycin (Invitrogen). Cells were free from mycoplasma as determined by MycoAlert tests (Lonza, Group Ltd., Basel, Switzerland).
(§3) A total of 5 × 10^3 HT-29, MCF-7 or HEK-293 cells in a total volume of 100 μL of their respective growth media were incubated with serial dilutions of the tested compounds. The 3-(4,5-dimethylthiazol-2-yl)-2,5-diphenyltetrazolium bromide (MTT; Sigma Chemical Co.) dye reduction assay in a 96-well microplate was used, as previously described. […] The resulting formazan was dissolved in 150 μL of 0.04 N HCl/2-propanol and read at 550 nm. All determinations were carried out in triplicate.

[2] = tested on: A-549 (human pulmonary adenocarcinoma); assay: Inhibition of cell proliferation (MTT), A-549; type: cell-based; settings: 48 h of treatment (footnote), average ±SD of three experiments
Description: as §1
as §2, with “Switzerland). […]” for “Switzerland).”

[3] = tested on: MCF-7 (breast adenocarcinoma); assay: Inhibition of cell proliferation (MTT), MCF-7; type: cell-based, human; settings: Homo sapiens, 48 h of treatment (footnote), average ±SD of three experiments
Description: as §1, §2, §3

[4] = tested on: HT-29 (human colon adenocarcinoma); assay: Inhibition of cell proliferation (MTT), HT-29; type: cell-based; settings: Homo sapiens, 48 h of treatment (footnote), average ±SD of three experiments
Description: as §1, §2, §3

[5] = tested on: purified tubulin; assay: Critical concentration (CrC) for the assembly of purified tubulin in GAB; type: biochemical; settings: compound 27.5 μM, tubulin 25 μM, glycerol (GAB) and GTP assembly buffer; control 7.9 ± 1.2
Experimental: The effect on the self-assembly of tubulin was determined by measuring the critical concentration (CrC).

[6] = tested on: A-549 cells; assay: Cell cycle distribution by flow cytometry; type: cell-based, human; settings: A-549, 24 h; for Effect on the cell cycle: concentration per compound as in Tables 6 and 7
Experimental: The effects of some CA-4 derivatives on the cell cycle were evaluated in A-549 cells.
The effects of some AmCA-4 derivatives on the cell cycle were also evaluated in A-549 cells.
The supernatant and trypsinated cells were harvested and then centrifuged (1200 rpm, 5 min, 4 °C). The cell pellet was resuspended in 1 mL of cold 70% ethanol for 30 min at −20 °C. Cells were centrifuged (2000 rpm, 5 min, 4 °C) to remove ethanol, and then the cell pellet was resuspended in the staining mix containing 50 µg/mL propidium iodide (Molecular Probes, France) and 100 µg/mL RNAse A (Sigma, France) in PBS for 20 min at room temperature in darkness. Samples were analyzed on a Becton Dickinson FACScan flow cytometer using the CellQuest software, which was also used to determine the percentage of cells in the G2/M phases of the cell cycle. PI was excited at 488 nm, and fluorescence analyzed at 620 nm on channel Fl-2.

[7] = tested on: c-Myc gene; assay: c-Myc gene expression by RT-qPCR in HT-29 cells; type: cell-based, human; settings: HT-29, 48 h
Experimental: (§4) The effect on the expression of VEGF, hTERT and c-Myc genes has been studied for CA-4 and its derivatives that show selectivity indexes higher than 0.9 on the HT-29 cell line. The studied derivatives, together with the concentrations to which they have been tested, are CA-4 (15 μM); 4.1 (Gly, 5 μM); 4.5 (L-Pro, 25 μM); 4.9 (L-Met, 25 μM); 6.2 (D-Leu, 25 μM); 6.3 (D-Phe, 25 μM); 6.4 (D-Pro, 25 μM) and 6.5 (D-Ser, 10 μM). The expression of the genes was determined by RT-qPCR methodology, as described in the Materials and Methods section.
(§5) As regards AmCA-4 derivatives, the effect on the expression of the VEGF, hTERT and c-Myc genes has been studied on those that show IC50 in the low nanomolar range on the HT-29 cell line and/or on compounds whose selectivity indexes with respect to this cell line are higher than 1. The studied compounds, together with the concentrations to which they have been tested, are: CA-4 (15 μM), AmCA-4 (15 nM), 7.1 (7 nM), 7.2 (1.5 nM), 7.3 (4 nM), 7.4 (15 nM), 7.5 (2 nM), 7.7 (7 nM), 7.8 (15 nM), 7.9 (30 nM), 8.1 (7 nM), 8.2 (3 nM), 8.3 (10 nM), 8.4 (1.5 nM), 8.5 (4 nM), 8.7 (7 nM), 8.8 (3 nM) and 8.9 (4 nM).
(§6) HT-29 cells at 70–80% confluence were collected, and 1.5 × 10^5 cells were placed in a six-well plate in 1.5 mL of the medium. After 24 h, cells were incubated with the corresponding compounds for 48 h. Cells were collected, and the total cellular RNA from the HT-29 cells was isolated using an Ambion RNA Extraction Kit, according to the manufacturer’s instructions. The cDNA was synthesized by MMLV-RT with […] of extracted RNA and oligo(dT)15, according to the manufacturer’s instructions. Genes were amplified by a thermal cycler and StepOnePlus™ TaqMan® probes. TaqMan® Gene Expression Master Mix Fast, containing the appropriate buffer for the amplification conditions, dNTPs, thermostable DNA polymerase enzyme and a passive reference probe, was used. To amplify each of the genes, the predesigned primers sold by Life Technologies TaqMan® Gene Expression Assays Hs99999903-m1 (β-actin), Hs00900055-m1 (VEGF), Hs00972646-m1 (hTERT) and Hs00153408-m1 (c-Myc) were used.

[8] = tested on: hTERT gene; assay: hTERT gene expression by RT-qPCR in HT-29 cells; type: cell-based, human; settings: Homo sapiens, HT-29, 48 h, 1.5 nM, control 100
Experimental: as §4, §5, §6

[9] = tested on: VEGF gene; assay: VEGF gene expression by RT-qPCR in HT-29 cells; type: cell-based, human; settings: HT-29, 48 h
Experimental: as §4, §5, §6

[10] = Homo sapiens, A549, 48 h, Table 1
[11] = Homo sapiens, A549, 48 h, Table 2
[12] = discussion, concentration per compound
[13] = Homo sapiens, 1.5 nM, control 100

| IC50 ([3]; MCF7, Table 1) [µM] | IC50 ([4]; HT-29, Table 1) [µM] | Compound | IC50 ([1]; HEK293, Table 1) [µM] | IC50 [2, 10] [µM] | CrC (critical concentration) [5] [µM] | Effect on the cell cycle [6] | IC50 ([1]; HEK293, 48 h, Table 1) [µM] | IC50 ([3]; MCF7, 48 h, Table 1) [µM] | IC50 ([4]; HT-29, 48 h, Table 1) [µM] | G0/G1 ([6]; 75 μM) [%] | G2/M ([6]; 75 μM) [%] | S ([6]; 75 μM) [%] | other results |
| --- | --- | --- | --- | --- | --- | --- | --- | --- | --- | --- | --- | --- | --- |
| 24 ± 2 | 48 ± 5 | COC(=O)[C@@H]1CCCN1C(=O)COc1cc(/C=C\c2cc(OC)c(OC)c(OC)c2)ccc1OC [Compound 3.5] | 20 ± 1 | 50 ± 10 | 10.4 ± 2.0 | do not exert any significant effect on the cells |  |  |  |  |  |  | G0/G1 ([6]; 100 μM): 77 ± 2%; G2/M ([6]; 100 μM): 7 ± 1%; S ([6]; 100 μM): 16 ± 2% |
|  |  | COc1ccc(/C=C\c2cc(OC)c(OC)c(OC)c2)cc1NC(=O)[C@H](N)CC(C)C [Compound 10.2] |  |  | 7.0 ± 0.5 | do not accumulate a high percentage of cells in phase G2/M |  |  |  |  |  |  | IC50 ([1]; HEK293, 48 h, Table 2): 0.43 ± 0.04 µM; IC50 [2, 11]: 0.157 ± 0.007 µM; IC50 ([3]; MCF7, 48 h, Table 2): 2 ± 0.9 µM; IC50 ([4]; HT-29, 48 h, Table 2): 1.05 ± 0.14 µM; G0/G1 ([6]; 0.5 µM): 63 ± 4%; G2/M ([6]; 0.5 µM): 22 ± 2%; S ([6]; 0.5 µM): 16 ± 3% |
|  |  | COC(=O)[C@H](CC(C)C)NC(=O)COc1cc(/C=C\c2cc(OC)c(OC)c(OC)c2)ccc1OC [Compound 3.3] |  | < 10 | 9.4 ± 1.4 |  | 9 ± 2 | 19 ± 6 | 29 ± 6 | 45 ± 6 | 36 ± 4 | 19 ± 2 | IC50 ([2]; Table 1): 8 ± 1 µM |
|  |  | COc1ccc(/C=C\c2cc(OC)c(OC)c(OC)c2)cc1NC(=O)[C@H](C)NC(=O)OCC1c2ccccc2-c2ccccc21 [Compound 7.2] |  |  | 9.4 ± 0.3 |  |  |  |  |  |  |  | IC50 [2, 11]: 0.242 ± 0.013 µM; downregulation of c-Myc gene expression [7, 12]: more than 60%; mrna remaining at 0.0015 µM [7, 13]: 22%; mrna remaining at 0.0015 µM [8]: 79%; G0/G1 ([6]; 0.5 µM): 28 ± 1%; G2/M ([6]; 0.5 µM): 53 ± 2%; S ([6]; 0.5 µM): 19 ± 2%; downregulation of VEGF gene expression [9, 12]: more than 60%; mrna remaining at 0.0015 µM [9, 13]: 25% |
| 10 ± 4 | 50 | COC(=O)[C@H]1CCCN1C(=O)COc1cc(/C=C\c2cc(OC)c(OC)c(OC)c2)ccc1OC [Compound 5.4] | 5.7 ± 0.8 | 15 ± 1 | 9 ± 3 |  |  |  |  | 36 ± 4 | 50 ± 1 | 14 ± 3 |  |
|  |  | COc1ccc(/C=C\c2cc(OC)c(OC)c(OC)c2)cc1OCC(=O)N1CCC[C@H]1C(=O)O [Compound 4.5] |  | 110 ± 10 | 9.2 ± 0.5 | do not exert any significant effect on the cells | 45 ± 16 | 83 ± 16 | 26 ± 13 | 72 | 16 | 12 |  |
| 46 ± 3 | 45 ± 5 | COc1ccc(/C=C\c2cc(OC)c(OC)c(OC)c2)cc1OCC(=O)N[C@@H](C(=O)O)C(C)C [Compound 6.1] | 39 ± 6 | 54 ± 7 | 9.4 ± 1.3 | do not exert any significant effect on the cells |  |  |  |  |  |  | G0/G1 ([6]; 100 μM): 67 ± 2%; G2/M ([6]; 100 μM): 13 ± 1%; S ([6]; 100 μM): 20 ± 2% |
|  |  | COC(=O)[C@@H](NC(=O)COc1cc(/C=C\c2cc(OC)c(OC)c(OC)c2)ccc1OC)C(C)C [Compound 3.2] |  | 24 ± 1 | 11.7 ± 2.3 |  | 5 ± 2 | 12 ± 6 | 24 ± 4 | 42 ± 3 | 44 ± 1 | 14 ± 4 |  |
